# Measurements as given in patent US20180002319A1, “MACROCYCLIC PICOLINAMIDE COMPOUNDS WITH FUNGICIDAL ACTIVITY” (DOW AGROSCIENCES LLC, priority 2014, published 2018).
# Read-outs that look alike come from different tables or passages of the source.
# Assays:
# [1] = system: Puccinia triticina; assay: Wheat Brown Rust (PUCCRT) fungicidal activity; format: in vivo; conditions: for pest or weed control at 121.5 g/ha: Low Volume application, 121.5 g/H; for pest or weed control at 100 ppm: High Volume application
# Procedure: (§1) Technical grades of materials were dissolved in acetone, which were then mixed with nine volumes of H2O containing 110 ppm Triton X-100. The fungicide solutions were applied onto wheat seedlings using an automated booth sprayer to run-off. All sprayed plants were allowed to air dry prior to further handling. All fungicides were evaluated using the aforementioned method for their activity vs. all target diseases, unless stated otherwise. Wheat leaf blotch and brown rust activity were also evaluated using track spray applications, in which case the fungicides were formulated as EC formulations, containing 0.1% Trycol 5941 in the spray solutions. Wheat plants (variety Yuma) were grown from seed in a greenhouse in 50% mineral soil/50% soil-less Metro mix until the first leaf was fully emerged, with 7-10 seedlings per pot. These plants were inoculated with an aqueous spore suspension of Zymoseptoria tritici either prior to or after fungicide treatments. After inoculation the plants were kept in 100% relative humidity (one day in a dark dew chamber followed by two to three days in a lighted dew chamber at 20° C.) to permit spores to germinate and infect the leaf. The plants were then transferred to a greenhouse set at 20° C. for disease to develop. When disease symptoms were fully expressed on the 1st leaves of untreated plants, infection levels were assessed on a scale of 0 to 100 percent disease severity. Percent disease control was calculated using the ratio of disease severity on treated plants relative to untreated plants. Example B: Evaluation of Fungicidal Activity: Wheat Brown Rust (Puccinia triticina; Bayer Code PUCCRT) Wheat plants (variety Yuma) were grown from seed in a greenhouse in 50% mineral soil/50% soil-less Metro mix until the first leaf was fully emerged, with 7-10 seedlings per pot. These plants were inoculated with an aqueous spore suspension of Puccinia triticina either prior to or after fungicide treatments. After inoculation the plants were kept in a dark dew room at 22° C. with 100% relative humidity overnight to permit spores to germinate and infect the leaf. The plants were then transferred to a greenhouse set at 24° C. for disease to develop. Fungicide formulation, application and disease assessment followed the procedures as described in the Example A.
# [2] = system: Zymoseptoria tritici; assay: Leaf Blotch of Wheat (SEPTTR) fungicidal activity; format: in vivo; conditions: for pest or weed control at 121.5 g/ha: Low Volume application, 121.5 g/H
# Procedure: as §1, with “Example A: Evaluation of Fungicidal Activity: Leaf Blotch of Wheat (Zymoseptoria tritici; Bayer Code […]) Technical” for “Technical”, “plants.” for “plants. Example B: Evaluation of Fungicidal Activity: Wheat Brown Rust (Puccinia triticina; Bayer Code PUCCRT) Wheat plants (variety Yuma) were grown from seed in a greenhouse in 50% mineral soil/50% soil-less Metro mix until the first leaf was fully emerged, with 7-10 seedlings per pot. These plants were inoculated with an aqueous spore suspension of Puccinia triticina either prior to or after fungicide treatments. After inoculation the plants were kept in a dark dew room at 22° C. with 100% relative humidity overnight to permit spores to germinate and infect the leaf. The plants were then transferred to a greenhouse set at 24° C. for disease to develop. Fungicide formulation, application and disease assessment followed the procedures as described in the Example A.”
# [3] = 24 h, 1 day protectant, read-out: PUCCRT disease control, 1DP (1 Day Protectant)
# [4] = 72 h, 3 day curative, read-out: PUCCRT disease control, 3DC (3 Day Curative)
# [5] = 24 h, wheat leaf blotch, 1 day protectant, read-out: SEPTTR disease control, 1DP (1 Day Protectant)
# [6] = 24 h, High Volume application, 100 ppm, wheat leaf blotch, 1 day protectant, read-out: SEPTTR disease control, 1DP (1 Day Protectant)
# [7] = 72 h, High Volume application, 100 ppm, wheat leaf blotch, 3 day curative, read-out: SEPTTR disease control, 3DC (3 Day Curative)
# [8] = 72 h, wheat leaf blotch, 3 day curative, read-out: SEPTTR disease control, 3DC (3 Day Curative)
SMILES,"pest or weed control at 121.5 g/ha [1, 3]","pest or weed control at 121.5 g/ha [1, 4]","pest or weed control at 121.5 g/ha [2, 5]","pest or weed control at 100 ppm [1, 3]","pest or weed control at 100 ppm [1, 4]","pest or weed control at 100 ppm [2, 6]","pest or weed control at 100 ppm [2, 7]","pest or weed control at 100 ppm ([2]; 24 h, read-out: SEPTTR disease control, 1DP (1 Day Protectant))","pest or weed control at 100 ppm ([2]; 72 h, read-out: SEPTTR disease control, 3DC (3 Day Curative))","pest or weed control at 121.5 g/ha [2, 8]"
COc1ccnc(C(=O)N[C@H]2CCCC[C@H](CC3CCCC3)[C@@H](OC)[C@H](C)OC2=O)c1OC(C)=O [Compound 59],> 80%,> 80%,< 80%,,,,,,,
CCCCO[C@H]1CCOC[C@H](NC(=O)c2nccc(OC)c2OCOC(C)=O)C(=O)O[C@@H](C)[C@@H]1OCC(C)C [Compound 7],,,,> 80%,> 80%,> 80%,< 80%,,,
"CCC[C@H]1CCCC[C@H](NC(=O)c2nccc(OC)c2O)C(=O)O[C@@H](C)[C@@H]1OCC(C)C [compound 105, 3-hydroxy-N-((3S,8S,9R,10S)-9-isobutoxy-10-methyl-2-oxo-8-propyloxecan-3-yl)-4-methoxypicolinamide]",,,,< 80%,< 80%,,,< 80%,< 80%,
COc1ccnc(C(=O)N[C@H]2CCCC[C@H](OCc3ccccc3)[C@@H](OCc3ccccc3)[C@H](C)OC2=O)c1OC(C)=O [Compound 9],> 80%,< 80%,> 80%,> 80%,> 80%,> 80%,< 80%,,,> 80%
COc1ccnc(C(=O)N[C@H]2CCOC[C@H](OC(=O)C(C)C)[C@@H](Oc3ccccc3)[C@H](C)OC2=O)c1OCOC(C)=O [Compound 44],> 80%,> 80%,< 80%,,,,,,,< 80%
COc1ccnc(C(=O)N[C@H]2CCCC[C@H](CC3CCCC3)[C@@H](Oc3ccccc3)[C@H](C)OC2=O)c1OC(C)=O [Compound 52],> 80%,< 80%,> 80%,,,,,,,
COc1ccnc(C(=O)N[C@H]2CCCC[C@H](Cc3ccccc3)[C@@H](OC(=O)C(C)C)[C@H](C)OC2=O)c1OCOC(C)=O [Compound 60],> 80%,> 80%,> 80%,,,,,,,> 80%
"CCC[C@H]1CCCC[C@H](NC(=O)c2nccc(OC)c2OCOC(C)=O)C(=O)O[C@@H](C)[C@@H]1OCC(C)C [compound 30, ((2-(((3S,8S,9R,10S)-9-isobutoxy-10-methyl-2-oxo-8-propyloxecan-3-yl)carbamoyl)-4-methoxypyridin-3-yl)oxy)methyl acetate]",> 80%,< 80%,< 80%,,,,,,,< 80%
COc1ccnc(C(=O)N[C@H]2COCC[C@H](Cc3ccc(F)cc3)[C@@H](Oc3ccccc3)[C@H](C)OC2=O)c1OC(C)=O [Compound 71],> 80%,> 80%,> 80%,,,,,,,> 80%
COc1ccnc(C(=O)N[C@H]2COCCC[C@@H](OCC(C)C)[C@H](C)OC2=O)c1O [Compound 112],,,,< 80%,< 80%,< 80%,< 80%,,,
COc1ccnc(C(=O)N[C@H]2CCCC[C@H](Cc3ccccc3)[C@@H](Oc3ccccc3)[C@H](C)OC2=O)c1OCOC(C)=O [Compound 62],> 80%,< 80%,> 80%,,,,,,,> 80%
"COc1ccc(C[C@H]2CCOC[C@H](NC(=O)c3nccc(OC)c3OCOC(=O)C(C)C)C(=O)O[C@@H](C)[C@@H]2Oc2ccccc2)cc1 [Compound 67, ((4-methoxy-2-(((3S,8S,9R,10S)-8-(4-methoxybenzyl)-10-methyl-2-oxo-9-phenoxy-1,5-dioxecan-3-yl)carbamoyl)pyridin-3-yl)oxy)methyl isobutyrate]",> 80%,< 80%,> 80%,,,,,,,< 80%
CCCCO[C@H]1CCOC[C@H](NC(=O)c2nccc(OC)c2O)C(=O)O[C@@H](C)[C@@H]1OC(=O)C1CC1 [Compound 85],,,,> 80%,> 80%,< 80%,> 80%,,,
"COc1ccnc(C(=O)N[C@H]2CCCC[C@H](CC3CCCC3)[C@@H](OC(=O)C(C)C)[C@H](C)OC2=O)c1OC(C)=O [Compound 56, (2S,3R,4R,9S)-9-(3-acetoxy-4-methoxypicolinamido)-4-(cyclopentylmethyl)-2-methyl-10-oxooxecan-3-yl isobutyrate]",> 80%,< 80%,> 80%,,,,,,,< 80%
CC[C@H]1CCOC[C@H](NC(=O)c2nccc(OC)c2OCOC(C)=O)C(=O)O[C@@H](C)[C@@H]1Oc1ccccc1 [Compound 69],> 80%,> 80%,> 80%,,,,,,,> 80%
COc1ccnc(C(=O)N[C@H]2COCC[C@H](Cc3ccc(F)cc3)[C@@H](OC(=O)C(C)C)[C@H](C)OC2=O)c1OCOC(C)=O [Compound 76],> 80%,> 80%,> 80%,,,,,,,> 80%
COc1ccnc(C(=O)N[C@H]2CCCC[C@H](OC3CCCC3)[C@@H](OC)[C@H](C)OC2=O)c1O [Compound 108],,,,< 80%,> 80%,< 80%,< 80%,,,
COc1ccnc(C(=O)N[C@H]2COCC[C@H](Cc3ccc(F)cc3)[C@@H](Oc3ccccc3)[C@H](C)OC2=O)c1OCOC(C)=O [Compound 72],> 80%,> 80%,> 80%,,,,,,,> 80%
COc1ccnc(C(=O)N[C@H]2CCCC[C@H](OC)[C@@H](OCC(C)C)[C@H](C)OC2=O)c1OCOC(C)=O [Compound 12],,,,> 80%,> 80%,> 80%,> 80%,,,
COc1ccc(C[C@H]2CCOC[C@H](NC(=O)c3nccc(OC)c3OC(C)=O)C(=O)O[C@@H](C)[C@@H]2Oc2ccccc2)cc1 [Compound 65],> 80%,< 80%,> 80%,,,,,,,< 80%
COc1ccc(C[C@H]2CCOC[C@H](NC(=O)c3nccc(OC)c3OC(=O)C(C)C)C(=O)O[C@@H](C)[C@@H]2Oc2ccccc2)cc1 [Compound 68],> 80%,,< 80%,,,,,,,< 80%
COc1ccnc(C(=O)N[C@H]2COCC[C@H](Cc3ccc(F)cc3)[C@@H](OCC3CC3)[C@H](C)OC2=O)c1OC(C)=O [Compound 77],> 80%,> 80%,> 80%,,,,,,,< 80%
